Measurements as given in patent US11976083B2, “Inhibitors of peptidylarginine deiminases” (Gilead Sciences, Inc., priority 2020, dated 2024).

Target: T1, human PAD4 (Homo sapiens, UniProt Q9UM07)
T1 construct: human PAD4 (NM_012387), A2-P663, was PCR amplified; His-SUMO (N, cleaved yes); made in house; host or cells: E. coli BL21(DE3)
Assay: In vitro PAD4 BAEE biochemical assay
Details: BAEE substrate 3 mM, 5 nM PAD4, 2 mM calcium chloride; geometric mean of multiple experiments
Outline: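 Fluorescence read-out (ex 405/em 535 nm) of isoindole formed from ammonia, o-phthalaldehyde and DTT after EDTA stop. Reaction: 5 nM PAD4, 2 mM CaCl2, 3 mM BAEE, 2 h, 25 °C, after 30 min enzyme–compound preincubation. Normalised to BB-Cl-Amidine (50 µM) and DMSO controls.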

T1 sequence (Q9UM07 2-663): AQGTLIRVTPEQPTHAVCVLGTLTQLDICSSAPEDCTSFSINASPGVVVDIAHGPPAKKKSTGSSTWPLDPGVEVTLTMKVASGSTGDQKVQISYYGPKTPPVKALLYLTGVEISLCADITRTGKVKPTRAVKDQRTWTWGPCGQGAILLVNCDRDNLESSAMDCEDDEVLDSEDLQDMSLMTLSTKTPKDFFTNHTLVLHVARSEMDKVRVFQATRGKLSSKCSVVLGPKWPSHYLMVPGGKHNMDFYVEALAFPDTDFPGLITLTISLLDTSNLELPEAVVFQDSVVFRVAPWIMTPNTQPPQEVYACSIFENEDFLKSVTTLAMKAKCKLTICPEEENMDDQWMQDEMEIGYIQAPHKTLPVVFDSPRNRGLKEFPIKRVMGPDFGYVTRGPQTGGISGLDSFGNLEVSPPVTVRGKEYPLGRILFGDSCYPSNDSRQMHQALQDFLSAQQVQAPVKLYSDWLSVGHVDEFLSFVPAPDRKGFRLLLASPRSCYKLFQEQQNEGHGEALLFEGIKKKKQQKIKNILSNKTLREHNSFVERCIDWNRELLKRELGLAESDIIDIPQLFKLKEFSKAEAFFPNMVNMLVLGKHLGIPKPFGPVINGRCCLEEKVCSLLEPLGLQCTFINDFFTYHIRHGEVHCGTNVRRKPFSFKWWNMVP

Compound | IC50
COc1cc(C(=O)N2CCC[C@@H](N)C2)cc2nc(-c3cc4ccc5nc4n3CCCCCCNC(=O)c3ncccc3-5)n(C)c12 [Example 46, 17-[5-[(3~{R})-3-aminopiperidine-1-carbonyl]-7-methoxy-1-methyl-benzimidazol-2-yl]-6,9,16,22-tetrazatetracyclo[14.5.2.0^{2,7}.0^{19,23}] tricosa-1(22),2,4,6,17,19(23),20-heptaen-8-one] | 0.277 µM
COc1cc(C(=O)N2[C@H]3CC[C@@H]2[C@H](N)C3)cc2nc(-c3cc4ccc5nc4n3CCCCCCCCC(=O)N[C@@H]5C)n(C)c12 [Example 286, (12~{R})-18-[5-[(1~{R},2~{R},4~{S})-2-amino-7-azabicyclo[2.2.1]heptane-7-carbonyl]-7-methoxy-1-methyl-benzimidazol-2-yl]-12-methyl-1,11,20-triazatricyclo[11.5.2.0^{16,19}]icosa-13(20),14,16(19),17-tetraen-10-one] | 0.009 µM
COc1cc(C(=O)N2CC[C@@H](OC)[C@@H](N)C2)cc2nc(-c3cc4ccc5nc4n3C[C@H]3C[C@H]3CCC[C@@](C)(C(F)(F)F)C(=O)N[C@@H]5C)n(C)c12 [Example 372, (3~{S},5~{R},9~{R},12~{R})-18-[5-[(3~{S},4~{R})-3-amino-4-methoxy-piperidine-1-carbonyl]-7-methoxy-1-methyl-benzimidazol-2-yl]-9,12-dimethyl-9-(trifluoromethyl)-1,11,20-triazatetracyclo[11.5.2.0^{3,5}.0^{16,19}] icosa-13(20),14,16(19),17-tetraen-10-one] | 0.183 µM
COc1cc(C(=O)N2C[C@H](N)[C@@H]3CC[C@H]2C3)cc2nc(-c3cc4ccc5nc4n3CCCCCC[C@](F)(c3ccccn3)C(=O)N[C@@H]5C)n(C3CC3)c12 (single isomer, unassigned) [Example 945, (8˜{S},11˜{R})-17-[5-[(1˜{S},4˜{R},5˜{R})-4-amino-2-azabicyclo[3.2.1]octane-2-carbonyl]-1-cyclopropyl-7-methoxy-benzimidazol-2-yl]-8-fluoro-11-methyl-8-(2-pyridyl)-1,10,19-triazatricyclo[10.5.2.0^{15,18}]nonadeca-12(19),13,15(18),16-tetraen-9-one] | 0.034 µM
COc1cc(C(=O)N2CCC[C@@H](N)[C@H]2C)cc2nc(-c3cc4ccc5nc4n3CCCCCCC(C)(C)C(=O)N[C@@H]5C)n(C)c12 [Example 15, (11~{R})-17-[5-[(2~{R},3~{R})-3-amino-2-methyl-piperidine-1-carbonyl]-7-methoxy-1-methyl-benzimidazol-2-yl]-8,8,11-trimethyl-1,10,19-triazatricyclo[10.5.2.0^{15,18}]nonadeca-12(19),13,15(18),16-tetraen-9-one] | 0.06 µM
C[C@H]1NC(=O)C(C)(C)CCCCCCn2c(-c3nc4cc(C(=O)N[C@H]5CNCC[C@@H]5F)cc(Cl)c4n3C)cc3ccc1nc32 [Example 501, 7-chloro-~{N}-[(3~ {S},4~{S})-4-fluoro-3-piperidyl]-1-methyl-2-[(11~{R})-8,8,11-trimethyl-9-oxo-1,10,19-triazatricyclo[10.5.2.0^{15,18}]nonadeca-12(19),13,15(18), 16-tetraen-17-yl] benzimidazole-5-carboxamide] | 0.271 µM
COc1cc(C(=O)N2CCC[C@@H](N)C2)cc2nc(-c3cc4ccc5nc4n3CCCCC[C@@H](OC)C(C)(C)C(=O)N[C@@H]5C)n(C)c12 [Example 153, (7~{R},11~{R})-17-[5-[(3~{R})-3-aminopiperidine-1-carbonyl]-7-methoxy-1-methyl-benzimidazol-2-yl]-7-methoxy-8,8,11-trimethyl-1,10,19-triazatricyclo[10.5.2.0^{15,18}]nonadeca-12(19),13,15(18),16-tetraen-9-one] | 0.116 µM
COc1cc(C(=O)N2CC[C@H]3OCCN[C@H]3C2)cc2nc(-c3cc4ccc5nc4n3CCCCCCC3(CC3)C(=O)N[C@@H]5C)n(C)c12 [Example 343, (11~{R})-17-[5-[(4~{a}~{S),8~{a}~{R})-2,3,4,4~{a},5,7,8,8~{a}-octahydropyrido[4,3-b][1,4]oxazine-6-carbonyl]-7-methoxy-1-methyl-benzimidazol-2-yl]-11-methyl-spiro[1,10,19-triazatricyclo[10.5.2.0^{15,18}]nonadeca-12(19),13,15(18),16-tetraene-8,1′-cyclopropane]-9-one] | 0.371 µM
COc1cc(C(=O)N2CCC[C@@H](N)[C@H]2C)cc2nc(-c3cc4ccc5c(F)c4n3CCCCCCC(C)(C)C(=O)N[C@@H]5C)n(C)c12 [Example 645, (11~{R})-17-[5-[(2~{R},3~ {R})-3-amino-2-methyl-piperidine-1-carbonyl]-7-methoxy-1-methyl-benzimidazol-2-yl]-19-fluoro-8,8,11-trimethyl-1,10-diazatricyclo [10.5.2.0^{15,18}]nonadeca-12(19),13,15(18),16-tetraen-9-one] | 0.036 µM
[2H]C([2H])([2H])O[C@@H]1CCN(C(=O)c2cc(OC)c3c(c2)nc(-c2cc4ccc5nc4n2CCCCCc2cncc(F)c2C(=O)N[C@@H]5C)n3C)C[C@@H]1N [Example 659, (2~{R})-17-[5-[(3~{S),4~{R})-3-amino-4-(trideuteriomethoxy)piperidine-1-carbonyl]-7-methoxy-1-methyl-benzimidazol-2-yl]-6-fluoro-2-methyl-3,8,16,22-tetrazatetracyclo[14.5.2.0^ {5,10}.0^{19,23}] tricosa-1(22),5,7,9,17,19(23), 20-heptaen-4-one] | 0.032 µM
COc1cc(C(=O)N2CCC[C@@H](N)C2)cc2nc(-c3cc4ccc5nc4n3C[C@@H]3C[C@H]3COCCC(=O)N[C@@H]5C)n(C)c12 [Example 150, (3~{R},5~{R},12~{R})-18-[5-[(3~{R})-3-aminopiperidine-1-carbonyl]-7-methoxy-1-methyl-benzimidazol-2-yl]-12-methyl-7-oxa-1,11,20-triazatetracyclo[11.5.2.0^{3,5}.0^{16,19}] icosa-13(20),14,16(19),17-tetraen-10-one] | 0.107 µM
C[C@H]1NC(=O)c2ccc(Cl)nc2CC[C@H]2C[C@@H]2Cn2c(-c3nc4cc(C(=O)N5C[C@H](N)[C@@H]6CC[C@H]5C6)cc(F)c4n3C3CC3)cc3ccc1nc32 [Example 878, (3~{S},5~{S},16~{R})-22-[5-[(1~{S},4~{R},5~{R})-4-amino-2-azabicyclo[3.2.1]octane-2-carbonyl]-1-cyclopropyl-7-fluoro-benzimidazol-2-yl]-10-chloro-16-methyl-1,9,15,24-tetrazapentacyclo [15.5.2.0^{3,5}.0^ {8,13}.0^{20,23}]tetracosa-8(13),9,11,17(24),18,20(23), 21-heptaen-14-one] | 0.026 µM
C[C@H]1NC(=O)[C@H]2C[C@@H]2CCCCn2c(-c3nc4cc(C(=O)N[C@H]5CNCC[C@@H]5F)c(F)cc4n3C)cc3ccc1nc32 [Example 499, 6-fluoro-~{N}-[(3~ {S},4~{S})-4-fluoro-3-piperidyl]-1-methyl-2-[(2~{R},7~{S})-2-methyl-4-oxo-3,12,18-triazatetracyclo [10.5.2.0^{5,7}.0^{15,19}]nonadeca-1(18), 13,15(19),16-tetraen-13-yl]benzimidazole-5-carboxamide] | 0.163 µM

Continued, values first:

IC50 | Compound
0.161 µM | CO[C@@H]1CCN(C(=O)c2cc(F)c3c(c2)nc(-c2cc4ccc5nc4n2CCCCCc2nccnc2C(=O)N[C@@H]5C)n3C)C[C@@H]1N [Example 513, (2~{R})-17-[5-[(3~ {S},4~{R})-3-amino-4-methoxy-piperidine-1-carbonyl]-7-fluoro-1-methyl-benzimidazol-2-yl]-2-methyl-3,6,9,16,22-pentazatetracyclo[14.5.2.0^ {5,10}.0^{19,23}] tricosa-1(22),5(10),6,8,17,19 (23),20-heptaen-4-one]
0.858 µM | COc1cc(C(=O)N2CCC[C@@H](N)C2)cc2nc(-c3cc4ccc5nc4n3CCCCCCCC(=O)N[C@H]5C(F)(F)F)n(C)c12 (single isomer, unassigned) [Example 236, (11˜{R})-17-[5-[(3˜{R})-3-aminopiperidine-1-carbonyl]-7-methoxy-1-methyl-benzimidazol-2-yl]-11-(trifluoromethyl)-1,10,19-triazatricyclo[10.5.2.0^{15,18}]nonadeca-12(19),13,15(18),16-tetraen-9-one]
0.051 µM | COc1cc(C(=O)N2C[C@H](N)[C@@H]3CC[C@H]2C3)cc2nc(-c3cc4ccc5nc4n3CCCCCc3cc4ccccc4nc3C(=O)N[C@@H]5C)n(C)c12 [Example 461, (2~{R})-21-[5-[(1~{S},4~{R},5~{R})-4-amino-2-azabicyclo[3.2.1]octane-2-carbonyl]-7-methoxy-1-methyl-benzimidazol-2-yl]-2-methyl-3,6,20,26-tetrazapentacyclo[18.5.2.0^ {5,14}.0^{7,12}.0^ {23,27}]heptacosa-1(26),5(14),6,8,10,12,21,23(27),24-nonaen-4-one]
0.061 µM | CO[C@@H]1CCN(C(=O)c2cc(F)c3c(c2)nc(-c2cc4ccc5nc4n2CCCCCc2nc4ccccc4cc2C(=O)N(C)[C@@H]5C)n3C2CC2)C[C@@H]1N [Example 833, (2~{R})-21-[5-[(3~{S},4~ {R})-3-amino-4-methoxy-piperidine-1-carbonyl]-1-cyclopropyl-7-fluoro-benzimidazol-2-yl]-2,3-dimethyl-3,13,20,26-tetrazapentacyclo[18.5.2.0^ {5,14).0^{7,12}.0^ {23,27}]heptacosa-1(26),5(14),6,8,10,12, 21,23(27),24-nonaen-4-one]
0.121 µM | COc1cc(C(=O)N2CC[C@@H](OCC(F)F)[C@@H](N)C2)cc2nc(-c3cc4ccc5nc4n3CCCCCCC(C)(C)C(=O)N[C@@H]5C)n(C)c12 [Example 14, (11~{R})-17-[5-[(3~{S),4~{R})-3-amino-4-(2,2-difluoroethoxy)piperidine-1-carbonyl]-7-methoxy-1-methyl-benzimidazol-2-yl]-8,8,11-trimethyl-1,10,19-triazatricyclo[10.5.2.0^{15,18}]nonadeca-12(19),13,15(18),16-tetraen-9-one]
